# Measurements: patent US20120046273A1, “COMPOUNDS AND COMPOSITIONS FOR COGNITION-ENHANCEMENT, METHODS OF MAKING, AND METHODS OF TREATING” (MITHRIDION, INC., priority 2009, published 2012)
# What was measured:
# [1] = Metabolites in serum and urine of dosed rats (LC-MS); assay type: in vivo; conditions: rat serum/plasma or urine, oral dosing
# Protocol: Oxadiazoles disclosed herein as well as other oxadiazoles were investigated to determine the formation of metabolites. Animals were dosed, blood taken, serum prepared, serum proteins precipitated and ultrafiltrates prepared as described in Example 6. In separate experiments, urine was collected from rats for 16-24 hours after dosing, using standard metabolic cages. The urine container and collected urine were maintained at 4° C. Urine was lyophilized, taken back into water. The ultrafiltrate was prepared by adding formic acid to a final concentration of 1% to the urine samples, then filtered through a 0.2 um nylon membrane. The ultrafiltrate was subjected to LC-MS analysis. Instead of measuring the product ions in Q3, manual Q1 scans of the liquid chromatograph were undertaken, seeking parent ions of potential metabolites of the compounds. The criteria for identifying metabolites were as follows: (1) the ion should be present in the sera or urines of dosed rats, but not in sera or urines from non-dosed rats (2) the ion should be identifiable as a metabolic derivative of the dosed compound (e.g. loss of a functional chemical moiety, addition of a hydroxyl group or a glucuronic acid moiety, etc). Metabolites were determined not to be present if no compound meeting the above criteria could be detected in serum or urine.
# [2] = Plasma concentration in rats, iontophoresis patch versus oral gavage; assay type: in vivo; conditions: Long Evans Hooded, rat
# Source text: Two patches were made up, consisting (in order from the outer layer to the skin contacting surface, respectively): adhesive tape (Transpore, 27 mm wide, 3M), circular stainless steel electrodes (22 mm dia) with a central hole for a stainless steel machine screw to which the electrode wire was attached, and 2 layers of 3MM CHR filter paper (Cat #3030-861, Whatman International, Ltd).
# The mid-dorsal area of a Long Evans Hooded rat (approximate weight, 320 grams), surgically prepared with a jugular vein catheter (Charles River), was shaved and the skin was then cleaned using an Electrode Prep Pad (Professional Disposables, Inc, Cat #B59800). […]
# Blood (400 μl) was withdrawn from the catheters in each rat every 30 minutes, transferred to 1.5 ml centrifuge tubes containing heparin (15 units/tube), and the plasma was separated by centrifugation from the cellular components. The plasma samples were maintained at 4 deg C. until analyzed. […]
# The ultra-filtrates were subjected to reverse-phase liquid chromatography using a 150×2.1 mm Agilent C8 reverse-phase column on a Shimadzu Prominence LC, eluting the MCD-386 with an isocratic flow of 2% acetonitrile+0.1% formic acid. The concentration of MCD-386 in the column effluent was measured using an Applied Biosystems API-3200 triple quadrupole mass spectrometer equipped with a Turbo V source (electrospray sample injection) system. […]
# [3] = system: apomorphine induced climbing; experiment: Apomorphine induced climbing model of psychosis; assay type: in vivo, CD-I mice; conditions: mice, sc
# Protocol: As described in Costall et. al. European Journal of Pharmacology 1978, 50, 39. individual CD-I mice, 1-2 months old, were placed in a cylindrical wire mesh cage (13.2 cm high×13.2 cm diameter) constructed of steel wire 1 mm thick spaced at 1.2 cm^2. Cylinders were placed in a standard OptiMICE mouse cage (29×32×9×29 cm wide and 14 cm high) with adequate wood chip bedding provided. Observations of climbing (defined as 3 or more paws off the ground) were carried out every 5 minutes at a duration of 1 minute for 30 minutes. Animals were injected subcutaneously under isoflurane anesthesia with test compounds, reference compounds, which included clozapine, haloperidol, olanzapine and xanomeline, or PBS as a control. This was followed 5 minutes later by 2 mg/kg apomorphine hydrochloride. All drugs were dissolved in PBS or a mixture of (by volume) 96% PBS and 4% hydroxypropyl-beta-cyclodextrin, and dosed at a rate of 5 ml per kilogram of body weight. Following injections, animals were replaced in the mesh cages and observed for climbing (defined as 3 or more paws off the ground) every 5 minutes for a duration of 1 minute for 60 minutes after dosing.
# [4] = Brain/plasma concentration ratio after oral dosing to rats; conditions: rat
# [5] = Brain concentrations in rats after oral gavage; assay type: in vivo, rat; conditions: rat, 10 mg/kg po, relative to MCD-386
# Protocol: Long-Evans Hooded rats (Charles River: male, 250-350 g) were dosed with solutions of test compounds in PBS by oral gavage. At the desired time after dosing, the animals were anesthetized with isoflurane, and then euthanized by cervical dislocation. Blood was obtained by cardiac puncture, transferred to a 1.5 mL microcentrifuge tube containing 15U Heparin, and the plasma recovered after centrifugation. Brains were dissected, weighed, immediately chilled to 4° C., and homogenized using a PowerGen 125 homogenizer in five volumes of ice-cold 2% formic acid. Proteins were precipitated from plasma and brain homogenate with two and five volumes respectively of ice-cold 2% formic acid and clarified by centrifugation. The supernatant was ultra-filtered by centrifugation through a 3K MWCO spin column (Pall Life Sciences), following the manufacturer's instructions. The concentration of compound in the ultra-filtrate was subjected to reverse-phase liquid chromatography using a 150×2.1 mm Agilent C8 reverse-phase column on a Shimadzu Prominence LC, eluting the compounds with a gradient of 2% to 50% of acetonitrile+0.1% formic acid for compound MI-50,382, or an isocratic flow of 2% acetonitrile+0.1% formic acid for the rest of the compounds listed. The concentration of the compound in the column effluent was measured using an Applied Biosystems API-3200 triple quadrupole mass spectrometer equipped with an electrospray sample injection system. The counts of the characteristic parent and product ions of each test compound were converted to concentration units by comparison with a standard calibration curve.
smiles,measurement,setting,value
"CCc1noc(C2CN=CNC2)n1 (stereo not shown) [Compound 18, 3-ethyl-5-(1,4,5,6-tetrahydropyrimidin-5-yl)-1,2,4-oxadiazole]",PAMPA (? × 106),PAMPA test,0.05 ? × 106
same,Presence of metabolites (10 mg/kg po),[1],Yes
same,concentration at 30 minutes,"[2]; other: iontophoresis patch (transdermal), 3.2 mg/kg, iontophoresis patch, dose 3.2 mg/kg",~850 nM
same,concentration at 30 minutes,"[2]; po, 10 mg/kg, oral gavage",911 nM
same,activity in the apomorphine induced climbing model,[3],inactive
same,Kp at 1 hour,[4],0.07 to 0.13
same,Brain Cmax (10 mg/kg po) MCD-386 = 1.00,[5],1.00
